# Data published in publication PMC6315362, “Cytotoxic Potential of the Novel Horseshoe Crab Peptide Polyphemusin III” (Marine Drugs, 2018).
# Where a SMILES comes first, the peptide text is derived from it. Bridges are numbered along the chain shown (N, C = ends).
# Legend:
# E. coli ML-35p = test: Antimicrobial assay, broth microdilution MIC; format: cell-based, Escherichia coli; details: Gram -, MH medium with NaCl, peptide diluted in 0.1% BSA, 10^6 CFU/mL, 24 h 37 °C, median of three independent triplicated experiments
# Description: (§1) Bacterial test cultures were grown in the Mueller-Hinton (MH) medium at 37 °C to mid-log phase and then diluted with the 2 x MH medium supplemented with 1.8% NaCl. 50 µL of the bacterial suspension with a final cell concentration of 10^6 CFU/mL were added to aliquots of 50 µL of the peptide solutions and serially diluted with sterilized 0.1% bovine serum albumin in 96-well flat-bottom polystyrene microplates (Eppendorf, Hamburg, Germany). Bacterial cells were incubated for 24 h at 37 °C and 900 rpm on the plate thermoshaker (Biosan, Riga, Latvia). The minimum inhibitory concentrations (MIC) were determined as the lowest peptide concentration that prevented growth of a test microorganism observed as visible turbidity. The results were expressed as median values of three independent triplicated experiments. Assessment of antimicrobial activities of the recombinant PM III, other polyphemusins, and tachyplesins was conducted against Gram-negative (Escherichia coli ML-35p, Klebsiella pneumoniae (clinical isolate, CI 287), Pseudomonas aeruginosa PAO1) and Gram-positive (Staphylococcus aureus ATCC 29213, Staphylococcus aureus 209P, Bacillus subtilis B-886, Micrococcus luteus B-1314) bacteria.
# B. subtilis B-886 = test: Antimicrobial assay, broth microdilution MIC; format: cell-based, Bacillus subtilis; details: B. subtilis B-886, Gram +, MH medium with NaCl, 24 h 37 °C, median of three independent triplicated experiments
# Description: as §1
# human red blood cells = test: Hemolytic activity assay; format: cell-based; details: for hemolysis at the maximal concentration: 100 µM peptide, human red blood cells 4% (v/v) in PBS pH 7.4, 1.5 h 37 °C, 0.1% Triton X-100 = 100%
# Description: Testing of the hemolytic activity of polyphemusins and tachyplesins was performed using fresh human red blood cells (hBRC). Permeabilization of erythrocyte cytoplasmic membrane results in lysis followed by the release of hemoglobin. hBRC were washed three times with phosphate buffered saline (PBS: 10 mM Na2HPO4, 1.76 mM K2HPO4, pH 7.4, containing […], and 2.7 mM KCl). Two-fold serial dilutions of the peptide solutions were added to 50 μL aliquots of hRBC in the 96-well microplate. The final hBRC concentration was of 4% (v/v) in each well, and the final volume of suspension was 100 μL. After incubation of suspensions for 1.5 h at 37 °C under stirring at 1000 rpm, centrifugation of plates was done at 700 g for 5 min. The supernatant 50 μL aliquots were then transferred into flat-bottomed 96-well microplates. The absorbance at 405 nm was measured in a microplate reader (Eppendorf, Hamburg, Germany), allowing the detection of hemoglobin release. 0.1% Triton X-100 caused a complete lysis of erythrocytes, thus hBRC treated with Triton X-100 were used as a positive control. […] The percentage of hemolysis was calculated using the following Equation (1):Hemolysis (%) = (OD405 sample − OD405 0% lysis control)/(OD405 100% lysis control − OD405 0% lysis control) × 100%(1)
# The quantitative data resulted from two series of experiments were represented as average means with standard deviations. The experiments were carried out using hBRC obtained from human blood samples of independent donors.
# S. aureus 209P = test: Antimicrobial assay, broth microdilution MIC; format: cell-based, Staphylococcus aureus; details: Gram +, MH medium with NaCl, 24 h 37 °C, median of three independent triplicated experiments
# Description: as §1
# S. aureus ATCC 29213 = test: Antimicrobial assay, broth microdilution MIC; format: cell-based, Staphylococcus aureus; details: S. aureus ATCC 29213, Gram +, MH medium with NaCl, 24 h 37 °C, median of three independent triplicated experiments
# Description: as §1
# [1] = test system: A549 (human lung carcinoma cells); format: cell-based; details: MTT after 48 h, DMEM/F12 with 10% FBS, mean ± SD of at least three independent experiments
# Description: Cytotoxic activities of PM III, its isoforms, and tachyplesins against seven human cell lines were evaluated. Four cancer (HL-60 acute promyelocytic leukemia, HeLa cervix adenocarcinoma, SK-BR-3 breast adenocarcinoma, A549 lung carcinoma), one transformed (HEK 293T transformed human embryonic kidney), and two normal human cell lines (HEF human embryonic fibroblasts and NHA normal human astrocytes) were used for these experiments. Cytotoxicity was measured by incubating the cells with serial dilutions of PM I, PM II, PM III, TP I, TP II, or TP III samples followed by MTT assay after 48 h. The half-maximal inhibitory concentrations (IC50) were measured as the peptide concentration at which cell viability was reduced by 50% in comparison to untreated cells (Table 3).
# The following tumor and transformed cell lines were used in this study: HL-60 (acute promyelocytic leukemia), HeLa (human cervix adenocarcinoma cells), SK-BR-3 (human breast adenocarcinoma cells), A549 (human lung carcinoma cells), HEK 293T (transformed human embryonic kidney cells), HEF (human embryonic fibroblasts), and NHA (normal human astrocytes) were used as normal cell lines. Tumor and transformed cell lines were obtained from the American Type Culture Collection (ATCC; www.atcc.org). Primary cells HEF (normal human embryonic fibroblasts derived from human embryonic stem cells) and NHA (normal human astrocytes derived from human fetal brain tissue) were obtained and cultured according to the corresponding protocol. Briefly, cells were cultured in DMEM/F12 (1:1) or RPMI-1640 medium containing 10% fetal bovine serum (Invitrogen, USA) at 37 °C in the atmosphere containing 5% CO2 and 95% air according to standard mammalian tissue culture protocols and using a sterile technique. All cell lines were tested by using the LookOut® Mycoplasma PCR Detection Kit (Sigma-Aldrich, St. Louis, MO, USA) according to the manufacturer’s protocol and found to be free of Mycoplasma infection.
# The colorimetric 3-(4,5-dimethylthiazol-2-yl)-2,5-diphenyltetrazolium bromide (MTT) dye reduction assay was used to determine the cytotoxicity of the polyphemusins and tachyplesins. Cells (3 × 10^3–6 × 10^3 per well) were placed into 96-well plates in Dulbecco’s modified Eagle’s medium (DMEM/F12) supplemented with 10% fetal bovine serum (FBS). After incubation in the atmosphere containing 5% CO2 and 95% air at 37 °C overnight, the media were discarded, and polyphemusins or tachyplesins solutions were added to the cell cultures up to final concentrations of 2.5, 5, 10, 25, and 50 μM in a final volume of 0.1 mL DMEM/F12 with 10% FBS. HL-60 cells (4 × 10^4 in 50 μL) were added to two-time serial dilutions of polyphemusins solutions at a final concentration of 1.25, 2.5, 5, 10, 25, and 50 μM in 50 μL RPMI-1640 with 10% FBS. 48 hours later, 20 μL of MTT (5 mg/mL) was added into each well and the plates were incubated for 3 h at 37 °C. The plates with HL-60 cells were centrifuged for 10 min at 300 g. The media were discarded and 0.1 mL of dimethyl sulfoxide and isopropanol mixture at a ratio of 1:1 (v/v) was added to each well to dissolve the crystallized formazan. The absorbance at 570 nm was measured by a microplate reader (Eppendorf, Hamburg, Germany).
Structure (SMILES),MICs (E. coli ML-35p),MICs (B. subtilis B-886),hemolysis at the maximal concentration (human red blood cells),MICs (S. aureus 209P),MICs (S. aureus ATCC 29213),IC50 [1],HC50 relative to IC50 measured for the HL-60 cell line (human red blood cells; HC50 / IC50 (HL-60)),"half-hemolysis concentration (HC50) (human red blood cells; fresh human red blood cells 4% (v/v) in PBS pH 7.4, 1.5 h 37 °C, absorbance 405 nm, two independent series of triplicated experiments)"
"CC[C@H](C)[C@@H]1NC(=O)CNC(=O)[C@H](CCCNC(=N)N)NC(=O)[C@H](Cc2ccc(O)cc2)NC(=O)[C@@H]2CSSC[C@H](NC1=O)C(=O)N[C@@H](Cc1ccc(O)cc1)C(=O)N[C@@H](CCCNC(=N)N)C(=O)N[C@@H](CCCNC(=N)N)C(=O)N[C@H](C(=O)N[C@@H](CCCNC(=N)N)C(=O)O)CSSC[C@H](NC(=O)[C@H](Cc1c[nH]c3ccccc13)NC(=O)[C@@H](N)CCCCN)C(=O)N[C@@H](Cc1ccccc1)C(=O)N[C@@H](CCCNC(=N)N)C(=O)N[C@@H](C(C)C)C(=O)N2 [TP I, tachyplesin I] (H-KWCFRVCYRGICYRRCR-OH; disulfide 3-16, 7-12 (inferred); N-terminus assumed)",0.062 µM,0.5 µM,38%,0.5 µM,8 µM,26.5 ± 1.2 µM,–,–
"CC[C@H](C)[C@@H]1NC(=O)CNC(=O)[C@H](CCCNC(=N)N)NC(=O)[C@H](Cc2ccc(O)cc2)NC(=O)[C@@H]2CSSC[C@H](NC1=O)C(=O)N[C@@H](Cc1ccc(O)cc1)C(=O)N[C@@H](CCCNC(=N)N)C(=O)N[C@@H](CCCCN)C(=O)N[C@H](C(=O)N[C@@H](CCCNC(=N)N)C(=O)O)CSSC[C@H](NC(=O)[C@H](Cc1c[nH]c3ccccc13)NC(=O)[C@@H](N)CCCCN)C(=O)N[C@@H](Cc1ccccc1)C(=O)N[C@@H](CCCNC(=N)N)C(=O)N[C@@H](C(C)C)C(=O)N2 [TP III, tachyplesin III] (H-KWCFRVCYRGICYRKCR-OH; disulfide 3-16, 7-12 (inferred); N-terminus assumed)",0.062 µM,1 µM,20%,0.5 µM,16 µM,15.3 ± 1 µM,–,–
"CC(C)[C@@H]1NC(=O)[C@H](CCCNC(=N)N)NC(=O)[C@H](Cc2ccccc2)NC(=O)[C@@H](NC(=O)[C@H](Cc2c[nH]c3ccccc23)NC(=O)[C@H](CCCNC(=N)N)NC(=O)[C@@H](N)CCCNC(=N)N)CSSC[C@@H](C(=O)N[C@@H](CCCNC(=N)N)C(=O)O)NC(=O)[C@H](CCCCN)NC(=O)[C@H](CCCNC(=N)N)NC(=O)[C@H](Cc2ccc(O)cc2)NC(=O)[C@@H]2CSSC[C@H](NC1=O)C(=O)N[C@@H](Cc1ccc(O)cc1)C(=O)N[C@@H](CCCCN)C(=O)NCC(=O)N[C@@H](Cc1ccccc1)C(=O)N2 [PM II, polyphemusin II] (H-RRWCFRVCYKGFCYRKCR-OH; disulfide 4-17, 8-13 (inferred); N-terminus assumed)",0.031 µM,0.5 µM,~ 30%,0.5 µM,4 µM,10.8 ± 1.9 µM,–,–
"CC[C@H](C)[C@@H]1NC(=O)CNC(=O)[C@H](CCCNC(=N)N)NC(=O)[C@H](Cc2ccc(O)cc2)NC(=O)[C@@H]2CSSC[C@H](NC1=O)C(=O)N[C@@H](Cc1ccc(O)cc1)C(=O)N[C@@H](CCCNC(=N)N)C(=O)N[C@@H](CCCCN)C(=O)N[C@H](C(=O)N[C@@H](CCCNC(=N)N)C(=O)O)CSSC[C@H](NC(=O)[C@H](Cc1c[nH]c3ccccc13)NC(=O)[C@@H](N)CCCNC(=N)N)C(=O)N[C@@H](Cc1ccccc1)C(=O)N[C@@H](CCCNC(=N)N)C(=O)N[C@@H](C(C)C)C(=O)N2 [TP II, tachyplesin II] (H-RWCFRVCYRGICYRKCR-OH; disulfide 3-16, 7-12 (inferred); N-terminus assumed)",0.062 µM,0.5 µM,33%,0.5 µM,8 µM,28.1 ± 1.7 µM,–,–
"CC(C)[C@@H]1NC(=O)[C@H](CCCNC(=N)N)NC(=O)[C@H](Cc2ccccc2)NC(=O)[C@@H](NC(=O)CNC(=O)[C@H](CCCNC(=N)N)NC(=O)[C@@H](N)CCCNC(=N)N)CSSC[C@@H](C(=O)N[C@@H](CCCNC(=N)N)C(=O)O)NC(=O)[C@H](CCCNC(=N)N)NC(=O)[C@H](CCC(N)=O)NC(=O)[C@H](Cc2ccccc2)NC(=O)[C@@H]2CSSC[C@H](NC1=O)C(=O)N[C@@H](Cc1ccc(O)cc1)C(=O)N[C@@H](CCCNC(=N)N)C(=O)NCC(=O)N[C@@H](Cc1ccccc1)C(=O)N2 [PM III, polyphemusin III] (H-RRGCFRVCYRGFCFQRCR-OH; disulfide 4-17, 8-13 (inferred); N-terminus assumed)",0.25 µM,0.5 µM,–,2 µM,16 µM,–,18 fold,46 µM
"CC(C)[C@@H]1NC(=O)[C@H](CCCNC(=N)N)NC(=O)[C@H](Cc2ccccc2)NC(=O)[C@@H](NC(=O)[C@H](Cc2c[nH]c3ccccc23)NC(=O)[C@H](CCCNC(=N)N)NC(=O)[C@@H](N)CCCNC(=N)N)CSSC[C@@H](C(=O)N[C@@H](CCCNC(=N)N)C(=O)O)NC(=O)[C@H](CCCCN)NC(=O)[C@H](CCCNC(=N)N)NC(=O)[C@H](Cc2ccc(O)cc2)NC(=O)[C@@H]2CSSC[C@H](NC1=O)C(=O)N[C@@H](Cc1ccc(O)cc1)C(=O)N[C@@H](CCCNC(=N)N)C(=O)NCC(=O)N[C@@H](Cc1ccccc1)C(=O)N2 [PM I, polyphemusin I] (H-RRWCFRVCYRGFCYRKCR-OH; disulfide 4-17, 8-13 (inferred); N-terminus assumed)",0.062 µM,0.25 µM,~ 45%,0.5 µM,4 µM,8.8 ± 1.3 µM,–,–
